Patent US7267983B2 (priority 2000, dated 2007)
Several values for one entry are separate records, joined by “and”; a condition that tells them apart may be missing. Equal values may be shown once.

System: β-toxin production by Clostridium perfringens
Type: cell-based
Parameters: mean total toxin production: unit not given here

Row | Substance | toxin per cell | mean total toxin production | beta toxin accumulation in the culture supernatant | total toxin ratio (total toxin with test peptide divided by base media total toxin) | amount of toxin produced per cell | total toxin in the two-point ELISA over optimized base medium alone | total toxin produced by the culture | total toxin mean value | toxin production
1 | GGMPG: pentapeptide | increased toxin per cell above the mean |  |  |  |  |  |  |  | 
2 | VDLLG: pentapeptide | increased toxin per cell above the mean |  |  |  |  |  |  |  | 
3 | MMELE: pentapeptide | increased toxin per cell above the mean |  |  |  |  |  |  |  | 
4 | FVPEK: pentapeptide | increased toxin per cell above the mean |  |  |  |  |  |  |  | 
5 | FSLLE: pentapeptide |  | 8.855 |  |  |  |  |  |  | 
6 | NEGLG: pentapeptide | increased toxin per cell above the mean |  |  |  |  |  |  |  | 
7 | SQLEL: pentapeptide |  | 8.284 |  |  |  |  |  |  | 
8 | YEQQN: pentapeptide | increased toxin per cell above the mean |  |  |  |  |  |  |  | 
9 | SYIME: pentapeptide | increased toxin per cell above the mean |  |  |  |  |  |  |  | 
10 | DKTNG: pentapeptide | increased toxin per cell above the mean |  |  |  |  |  |  |  | 
11 | LADTF: pentapeptide | increased toxin per cell above the mean |  |  |  |  |  |  |  | 
12 | FSFVE: pentapeptide |  | 8.727 |  |  |  |  |  |  | 
13 | HTVEL: pentapeptide | increased toxin per cell above the mean |  | enhance beta toxin accumulation |  |  |  |  |  | 
14 | FEFGV: pentapeptide | increased toxin per cell above the mean |  |  |  |  |  |  |  | 
15 | KFIEK: pentapeptide | increased toxin per cell above the mean |  |  |  |  |  |  |  | 
16 | ALFHE: pentapeptide | increased toxin per cell above the mean |  |  |  |  |  |  |  | 
17 | ESLQM: pentapeptide | increased toxin per cell above the mean |  |  |  |  |  |  |  | 
18 | PELME: pentapeptide | increased toxin per cell above the mean |  |  |  |  |  |  |  | 
19 | HAPAY: pentapeptide | increased toxin per cell above the mean |  |  |  |  |  |  |  | 
20 | YEYIY: pentapeptide | increased toxin per cell above the mean |  |  |  |  |  |  |  | 
21 | QNDVY: pentapeptide | increased toxin per cell above the mean |  | enhance beta toxin accumulation |  |  |  |  |  | 
22 | IKLAS: pentapeptide |  | 7.7475 |  |  |  |  |  |  | 
23 | MPNNF: pentapeptide | increased toxin per cell above the mean |  |  |  |  |  |  |  | 
24 | KTVGI: pentapeptide | increased toxin per cell above the mean |  |  |  |  |  |  |  | 
25 | DKAL: tetrapeptide |  |  |  | increased the total toxin ratio |  |  |  |  | 
26 | VEFTN: pentapeptide | increased toxin per cell above the mean |  |  |  |  |  |  |  | 
27 | YENLY: pentapeptide | increased toxin per cell above the mean |  |  |  |  |  |  |  | 
28 | LPDLF: pentapeptide | increased toxin per cell above the mean |  |  |  |  |  |  |  | 

Row | Substance | toxin per cell | mean total toxin production | beta toxin accumulation in the culture supernatant | total toxin ratio (total toxin with test peptide divided by base media total toxin) | amount of toxin produced per cell | total toxin in the two-point ELISA over optimized base medium alone | total toxin produced by the culture | total toxin mean value | toxin production
29 | NLTEL: pentapeptide |  | 8.321 |  |  |  |  |  |  | 
30 | PLFEQ: pentapeptide | increased toxin per cell above the mean |  |  |  |  |  |  |  | 
31 | ELSPH: pentapeptide | increased toxin per cell above the mean |  |  |  |  |  |  |  | 
32 | GYPEV: pentapeptide | increased toxin per cell above the mean |  |  |  |  |  |  |  | 
33 | DTHHI: pentapeptide | increased toxin per cell above the mean |  |  |  |  |  |  |  | 
34 | KPLDV: pentapeptide | increased toxin per cell above the mean |  |  |  |  |  |  |  | 
35 | ETVNF: pentapeptide | increased toxin per cell above the mean |  |  |  |  |  |  |  | 
36 | FEFVG: pentapeptide |  | 8.79 and 8.787 |  |  | doubled | about 2.2 × | near doubling |  | 
37 | YEYIG: pentapeptide |  |  |  |  |  |  |  | greater than twice that obtained using 3.5% hydrolysate alone | 
38 | KFIFE: pentapeptide | increased toxin per cell above the mean |  |  |  |  |  |  |  | 
39 | VNVQA: pentapeptide | increased toxin per cell above the mean |  |  |  |  |  |  |  | 
40 | ETLNL: pentapeptide |  | 8.28 |  |  |  |  |  |  | 
41 | NNNNN: pentapeptide |  |  |  |  |  |  |  |  | toxin production above the mean obtained in 0.5% hydrolysate media
42 | DMLQT: pentapeptide | increased toxin per cell above the mean |  |  |  |  |  |  |  | 
43 | MHAPP: pentapeptide | increased toxin per cell above the mean |  |  |  |  |  |  |  | 
44 | SVMEM: pentapeptide | increased toxin per cell above the mean |  |  |  |  |  |  |  | 
45 | LSFIE: pentapeptide | increased toxin per cell above the mean |  |  |  |  |  |  |  | 
46 | NQLEV: pentapeptide |  | 7.81 |  |  |  |  |  |  | 
47 | EKALE: pentapeptide | increased toxin per cell above the mean |  |  |  |  |  |  |  | 
48 | FDIST: pentapeptide |  | 8.395 |  |  |  |  |  |  | 
49 | SNGIY: pentapeptide | increased toxin per cell above the mean |  |  |  |  |  |  |  | 
50 | VHVYQ: pentapeptide |  |  |  |  |  |  |  |  | toxin production above the mean obtained in 0.5% hydrolysate media
51 | NEYLY: pentapeptide |  | 8.665 |  |  |  |  |  |  | 
52 | LSAL: tetrapeptide |  |  |  |  |  |  |  |  | significantly inhibited toxin production
53 | GDYVS: pentapeptide | increased toxin per cell above the mean |  |  |  |  |  |  |  | 
54 | TKPFF: pentapeptide | increased toxin per cell above the mean |  |  |  |  |  |  |  | 
55 | FMSTA: pentapeptide | increased toxin per cell above the mean |  |  |  |  |  |  |  | 
